# Reference: patent US20180125921A1, “USE OF QBP1 PEPTIDE FOR THE INHIBITION OF MEMORY CONSOLIDATION” (CONSEJO SUPERIOR DE INVESTIGACIONES CIENTÍFICAS, priority 2015, published 2018)
# Residues, ends and D or L forms follow the SMILES beside them.
# Tests used:
# Orb2A PLD [1] = experiment: Turbidimetry of Orb2A PLD amyloidogenesis; conditions: protein 10 μM, peptide 50 μM, 37° C., turbidity at 405 nm
# Method: (§1) Buffers, time and storage conditions, and protein/peptide concentrations used in the aforementioned techniques were as follows: • AFM-SMFS: Experiments were performed using 2-3 μM polyproteins in 10 mM Tris-HCl pH 7.5 at room temperature with proteins incubated at 4° C. between sessions and NTA-Ni2+ functionalized coverslips. For experiments in the presence of the peptides QBP1 and SCR, 20 μM of the peptide were used dissolved in DMSO, and the samples were incubated overnight with the peptide at 4° C. before the measurement. • CD: For far-UV CD spectra it was used a protein concentration of 2-5 μM in 5 mM NaH2PO4, with 0.02% NaN3, pH 6.0. […] The secondary structure content of each protein and its evolution during incubation were estimated by spectra deconvolution using the CDNN analysis program (Bohm, G., et al., Quantitative analysis of protein far UV circular dichroism spectra by neural networks, Protein Eng (1992) 5 (3): 191-5). For thermal stability measurements, the ellipticity changes induced by increasing the temperature (at a constant heating rate of 60° C./h) were measured at 222 nm in 5 mM NaH2PO4 pH 6.0 using a protein concentration of 20 μM. • Turbidimetry: Protein samples used were at 10 μM in PBS+0.02% NaN3, pH 7.0 for all the kinetic experiments. […]
# Orb2A PLD [2] = experiment: TEM imaging of Orb2A PLD oligomers and fibers; conditions: protein 10 μM, peptide 50 μM, 7 days at 37° C.
# Method: as §1
# Drosophila melanogaster = conditions: for short-term memory (courtship suppression immediately after training) / long-term memory (courtship suppression after 24 hours): Elav-Gal4 driven expression; for short-term memory (courtship suppression immediately after training): 5 min after training; for long-term memory (courtship suppression after 24 hours): 24 h after training; for effect on fly development / normal courtship behaviour: expression in the nervous system; for normal courtship behaviour: untrained flies
# Orb2A PLD [3] = experiment: Far-UV CD spectroscopy of Orb2A PLD over time; conditions: peptide five fold molar excess, 37° C.
# Method: as §1
# Orb2A PLD [4] = experiment: AFM-SMFS conformational polymorphism of Orb2A PLD; conditions: 20 μM peptide
# Method: Buffers, time and storage conditions, and protein/peptide concentrations used in the aforementioned techniques were as follows: • AFM-SMFS: Experiments were performed using 2-3 μM polyproteins in 10 mM Tris-HCl pH 7.5 at room temperature with proteins incubated at 4° C. between sessions and NTA-Ni2+ functionalized coverslips. For experiments in the presence of the peptides QBP1 and SCR, 20 μM of the peptide were used dissolved in DMSO, and the samples were incubated overnight with the peptide at 4° C. before the measurement. • CD: For far-UV CD spectra it was used a protein concentration of 2-5 μM in 5 mM NaH2PO4, with 0.02% NaN3, pH 6.0. The QBP1 or SCR (when used) was five fold molar excess relative to proteins (final concentrations 10 to 25 μM with the final concentration (v/v) of DMSO below 0.01%). After recording the first protein spectrum (hour 0), the protein was incubated at 37° C. without stirring and additional spectra were collected at the indicated times. The secondary structure content of each protein and its evolution during incubation were estimated by spectra deconvolution using the CDNN analysis program (Bohm, G., et al., Quantitative analysis of protein far UV circular dichroism spectra by neural networks, Protein Eng (1992) 5 (3): 191-5). For thermal stability measurements, the ellipticity changes induced by increasing the temperature (at a constant heating rate of 60° C./h) were measured at 222 nm in 5 mM NaH2PO4 pH 6.0 using a protein concentration of 20 μM. • Turbidimetry: Protein samples used were at 10 μM in PBS+0.02% NaN3, pH 7.0 for all the kinetic experiments. Samples were incubated at 37° C. without stirring. SCR and QBP1 peptides were used at 50 μM. • CR binding assay: Samples were aged for 7 days at 37° C. with 0.02% NaN3 and no stirring prior to performing the measurements. The protein samples (10 μM) were dialyzed in PBS pH 7.0 for the experiments. SCR and QBP1 peptides were used at 50 μM. • TEM imaging: Protein samples (10 μM) were dialyzed in PBS pH 7.0 for all the TEM measurements. Images were taken after 7 days of incubation at 37° C. in the presence of 0.02% NaN3 without stirring.
# Orb2A PLD [5] = experiment: CR binding assay of Orb2A PLD amyloid; conditions: protein 10 μM, peptide 50 μM, aged 7 days at 37° C.
# Method: as §1
# full-length Orb2A = full-length Orb2A (Drosophila melanogaster, UniProt Q9VSR3); experiment: Isothermal titration calorimetry (ITC) of peptide interaction with Orb2A; conditions: 25° C., PBS pH 7.4, Orb2A injected into excess peptide; no quantitative analysis
# Method: Proteins were equilibrated in PBS, pH 7.4, by gel-filtration chromatography and the equilibration buffer was used to prepare the peptide solutions. Protein/peptide binding was tested by successive injections of protein sample (10 to 25 μl each) into the reaction cell loaded with peptide at high final [peptide]/[protein] molar ratios. The apparent heat of reaction for each injection was obtained by integration of the peak area. The heats developed on protein or peptide dilutions were determined in separate runs loading the sample cell or the injection syringe with buffer, respectively, in the conditions used for the binding experiments. […] Protein (Orb2A, 185 μM) and ligand (QBP1 and SCR, 300 μM and 51 μM, respectively) concentrations in the loading solutions were measured spectrophotometrically using their respective extinction coefficients. • Drosophila strains.
# Tau = Tau (Homo sapiens, UniProt P10636); conditions: personal communication; cited from earlier work
# polyQ tracks = conditions: administered orally; cited from earlier work
# -synuclein = -synuclein (Homo sapiens, UniProt P37840); conditions: cited from earlier work
# Sup35 = target: T1, Sup35 (Saccharomyces cerevisiae, UniProt P05453); conditions: cited from earlier work
# T1 sequence (P05453 1-253 limits assumed): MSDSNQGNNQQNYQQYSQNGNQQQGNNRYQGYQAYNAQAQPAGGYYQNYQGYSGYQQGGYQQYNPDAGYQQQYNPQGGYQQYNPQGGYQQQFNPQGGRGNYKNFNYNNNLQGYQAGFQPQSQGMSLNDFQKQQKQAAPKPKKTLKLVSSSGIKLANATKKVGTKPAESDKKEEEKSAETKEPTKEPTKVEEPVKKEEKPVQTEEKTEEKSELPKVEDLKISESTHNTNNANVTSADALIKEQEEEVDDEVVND
# [6] = tested on: monomeric expanded polyQ proteins; conditions: cited from earlier work
# Chain of full-length Orb2A (Q9VSR3 1-551 isoform Q9VSR3-2): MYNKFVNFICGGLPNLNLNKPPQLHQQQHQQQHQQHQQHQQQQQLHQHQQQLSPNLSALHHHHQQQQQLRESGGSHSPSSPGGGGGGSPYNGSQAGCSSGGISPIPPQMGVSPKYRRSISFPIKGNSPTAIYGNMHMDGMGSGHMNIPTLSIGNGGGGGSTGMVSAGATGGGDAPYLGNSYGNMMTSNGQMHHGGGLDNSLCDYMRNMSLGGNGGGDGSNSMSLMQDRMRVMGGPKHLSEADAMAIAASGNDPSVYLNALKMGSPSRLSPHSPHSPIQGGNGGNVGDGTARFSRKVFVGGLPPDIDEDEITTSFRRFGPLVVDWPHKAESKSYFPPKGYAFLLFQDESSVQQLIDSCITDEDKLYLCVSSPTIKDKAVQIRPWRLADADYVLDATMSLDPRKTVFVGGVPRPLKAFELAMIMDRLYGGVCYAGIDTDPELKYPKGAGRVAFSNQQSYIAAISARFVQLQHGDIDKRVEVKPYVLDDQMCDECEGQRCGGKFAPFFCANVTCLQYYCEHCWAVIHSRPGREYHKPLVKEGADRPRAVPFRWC
# Chain of Tau (P10636 whole entry): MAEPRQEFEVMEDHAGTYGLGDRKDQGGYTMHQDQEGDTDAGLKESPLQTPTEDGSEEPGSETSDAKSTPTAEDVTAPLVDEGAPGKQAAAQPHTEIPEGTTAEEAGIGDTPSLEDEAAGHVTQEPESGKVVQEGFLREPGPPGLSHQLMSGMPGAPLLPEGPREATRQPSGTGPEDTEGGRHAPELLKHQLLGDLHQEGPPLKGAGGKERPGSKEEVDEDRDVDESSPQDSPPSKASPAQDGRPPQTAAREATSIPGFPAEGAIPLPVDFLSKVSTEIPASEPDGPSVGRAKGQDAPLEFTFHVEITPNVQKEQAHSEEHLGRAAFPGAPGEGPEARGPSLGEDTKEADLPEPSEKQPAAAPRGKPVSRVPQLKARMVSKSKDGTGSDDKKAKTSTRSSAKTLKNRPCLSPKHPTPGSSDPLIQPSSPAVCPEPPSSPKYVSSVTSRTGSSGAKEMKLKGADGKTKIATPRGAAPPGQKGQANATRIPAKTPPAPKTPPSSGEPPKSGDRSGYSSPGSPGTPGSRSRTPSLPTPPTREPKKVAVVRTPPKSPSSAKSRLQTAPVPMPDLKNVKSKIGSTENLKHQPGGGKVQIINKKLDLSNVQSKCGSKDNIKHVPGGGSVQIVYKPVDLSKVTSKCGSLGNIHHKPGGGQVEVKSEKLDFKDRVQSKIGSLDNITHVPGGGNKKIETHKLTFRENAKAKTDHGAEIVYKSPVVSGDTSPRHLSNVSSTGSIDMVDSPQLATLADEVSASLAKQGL
Compound,Orb2A PLD amyloidogenesis monitored by turbidimetry (Orb2A PLD [1]),formation of oligomers and fibers by TEM (Orb2A PLD [2]),short-term memory (courtship suppression immediately after training) (Drosophila melanogaster),long-term memory (courtship suppression after 24 hours) (Drosophila melanogaster),effect on fly development (Drosophila melanogaster),normal courtship behaviour (Drosophila melanogaster),oligomerization and loss of far-UV CD signal due to aggregation and precipitation (Orb2A PLD [3]),putative M events (SMFS incomplete recordings) (Orb2A PLD [4]),structures formed per molecule (SMFS force peaks) (Orb2A PLD [4]),"formation of M conformers (SMFS) (Orb2A PLD [4]; overnight 4° C., reduced from 37.7%)",Orb2A PLD amyloidogenesis monitored by CR binding (Orb2A PLD [5]),interaction with Orb2A by ITC (full-length Orb2A),effect on NM/M conformational transition (SMFS) (Orb2A PLD [4]; overnight 4° C.),amyloidogenesis (Tau),amyloidogenesis of polyQ tracks in Drosophila (polyQ tracks),"amyloidogenesis (conformational polymorphism, oligomerization, fibrillogenesis) (-synuclein)","amyloidogenesis (conformational polymorphism, oligomerization, fibrillogenesis) (Sup35)","β-conformational transition, oligomerization, fibrillogenesis, cytotoxicity and neurodegeneration of expanded polyQ proteins [6]"
"CC[C@H](C)[C@H](NC(=O)CNC(=O)[C@@H]1CCCN1C(=O)[C@H](Cc1c[nH]c2ccccc12)NC(=O)[C@H](Cc1c[nH]c2ccccc12)NC(=O)[C@H](CCCCN)NC(=O)[C@H](Cc1c[nH]c2ccccc12)NC(C)=O)C(=O)N[C@@H](Cc1ccccc1)C(N)=O [QBP1-f, Ac-WKWWPGIF-NH2] (Ac-WKWWPGIF-NH2)",inhibited Orb2A PLD amyloidogenesis,dramatic reduction in the formation of both oligomers and fibers,does not interfere with short-term memory,loss of long-term memory,did not affect fly development,slightly diminished,suppressed the oligomerization processes and decreased the loss of signal due to aggregation and precipitation,fewer putative M events,fewer structures formed per molecule,16.1%,inhibited Orb2A PLD amyloidogenesis,physically interacts with Orb2A,,,,,,
"CC[C@H](C)[C@H](NC(=O)[C@@H]1CCCN1C(=O)[C@H](Cc1c[nH]c2ccccc12)NC(C)=O)C(=O)N[C@@H](Cc1c[nH]c2ccccc12)C(=O)N[C@@H](CCCCN)C(=O)NCC(=O)N[C@@H](Cc1c[nH]c2ccccc12)C(=O)N[C@@H](Cc1ccccc1)C(N)=O [SCR, Ac-WPIWKGWF-NH2] (Ac-WPIWKGWF-NH2)",,not,does not interfere with short-term memory,no effect,did not affect fly development,slightly diminished,not,,,,,marginal interaction,no effect,,,,,
"QBP1: polyglutamine binding peptide 1, hydrophobic peptide, known inhibitor of amyloids including HttQ expansions (SNWKWWPGIFD; QBP1)",,,,,,,,,,,,,,not,can inhibit amyloidogenesis,inhibits amyloidogenesis,inhibits amyloidogenesis,"suppressing oligomerization, fibrillogenesis as well as associated cytotoxicity and neurodegeneration"
